Measurements from patent US9127044B2, “Cyclic depsipeptides” (NOVARTIS AG, priority 2007, dated 2015).
Where two headings read alike, the source gives them in different places. *1 amine or outer side, *2 acyl side, *3 side chain or, on linkers, in order; H or OH if unused. Where a SMILES comes first, the peptide text is derived from it. Bridges are numbered along the chain shown (N, C = ends). [ ]: non-standard residue; d: D form. The star is where a group is joined. ξ: configuration not given here. X1 = O=C([C@@H]1CC[C@H](O)N1[*:1])[*:2]; NMeY = CN[C@@H](Cc1ccc(O)cc1)C(=O)O; Butanoyl(2ξ-Me) = CCC(C)C(=O)*; Ile(3ξ) = CCC(C)[C@H](N)C(=O)O; Isovaleryl = CC(C)CC(=O)*; Isobutyryl = CC(C)C(=O)*

Assays:
[1] = target: T1, Human neutrophil elastase (Homo sapiens, UniProt P08246); experiment: HNE inhibitory activity in vitro (fluorescence-quenched substrate); type: biochemical
T1 construct: purchased Elastin Products Company, Inc. (EPC, Owensville, USA) SE563
T1 sequence (P08246 30-267): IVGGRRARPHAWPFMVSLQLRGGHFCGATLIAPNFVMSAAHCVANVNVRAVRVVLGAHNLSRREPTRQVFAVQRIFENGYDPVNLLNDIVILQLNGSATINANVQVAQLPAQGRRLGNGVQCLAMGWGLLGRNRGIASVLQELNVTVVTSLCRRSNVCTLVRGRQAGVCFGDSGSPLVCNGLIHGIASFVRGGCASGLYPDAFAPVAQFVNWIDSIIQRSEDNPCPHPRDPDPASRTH
Description: Human neutrophil elastase (cat. no. SE563) is purchased from Elastin Products Company, Inc. (EPC, Owensville, USA). The dry powder (purity >95% stated by the supplier) was dissolved in 20 mM sodium acetate buffer, pH 5.0, 50% (v/v) glycerol, and frozen at −80° C. in aliquots.
The fluorescence-quenched substrate (DABCYL-Ser-Glu-Val^Asn-Leu-Asp-Ala-Glu-Phe-EDANS, where ^ indicates the scissile bond, identified by MS analysis) was purchased from Bachem AG (Bubendorf, Switzerland), and kept as a 5 mM stock solution in DMSO at −20° C. All other chemicals were of analytical grade.
Enzymatic reactions were conducted in 100 mM Tris/HCl buffer at pH 7.5, containing 500 mM NaCl, and 0.05% (w/v) CHAPS.
All protein and peptide containing solutions are handled in siliconized tubes (Life Systems Design, Merenschwand, Switzerland).
(§1) The compound solutions as well as the enzyme and the substrate solutions are transferred to the 384-well plates (black Cliniplate; cat. no. 95040020 Labsystems Oy, Finland) by means of a CyBi-Well 96-channel pipettor (CyBio AG, Jena, Germany).
(§2) For fluorescence intensity (FI) measurements an Ultra Evolution reader (TECAN, Maennedorf, Switzerland) is used. The instrument is equipped with a combination of a 350 nm (20 nm bandwidth) and a 500 nm (25 nm bandwidth) bandpass filter for fluorescence excitation and emission acquisition, respectively. To increase the signal:background ratio, an appropriate dichroic mirror is employed. The optical filters and the dichroic mirror are purchased from TECAN. The fluorophores in each well are excited by three flashes per measurement.

human kallikrein 7 = human kallikrein 7 (Homo sapiens, UniProt P49862); experiment: Kallikrein-7 inhibitory activity in vitro (fluorescence-quenched substrate); type: biochemical
Description: (§3) IC50 for human kallikrein can be measured using the fluorescence-quenched substrate Ac-Glu-Asp(EDANS)-Lys-Pro-Ale-Leu-Phe^Arg-Leu-Gly-Lys(DABCYL)-Glu-NH2 (where ^ indicates the scissile bond, identified by MS analysis) which can be purchased from Biosyntan (Berlin, Germany). Enzymatic reactions are conducted in 50 mM sodium citrate buffer at pH 5.6 containing 150 mM NaCl and 0.05% (w/v) CHAPS. For the determination of IC50 values the assay is performed at room temperature in 384-well plates. All final assay volumes are 30 μl. Test compounds are dissolved in 90% (v/v) DMSO/water and diluted in water (containing 0.05% (w/v) CHAPS) to 3-times the desired assay concentration. The 11 final compound concentrations are: 0.3 nM, 1 nM, 3 nM, 10 nM, 30 nM, 100 nM, 300 nM, 1 μM, 3 μM, 10 μM and 30 μM. For each assay, 10 μl water/CHAPS (±test compound) are added per well, followed by 10 μl protease solution (diluted with 1.5× assay buffer). The protease concentration in final assay solution is 0.2 nM (according to the enzyme concentrations determined by the Bradford method). After 1 hour of incubation at room temperature, the reaction is started by addition of 10 μl substrate solution (substrate dissolved in 1.5× assay buffer, final concentration is 2 μM). […] The IC50 value is calculated from the plot of percentage of inhibition vs. inhibitor concentration using non-linear regression analysis software (XLfit, Vers. 4.0; ID Business Solution Ltd., Guildford, Surrey, UK).
The fluorescence-quenched substrate Ac-Glu-Asp(EDANS)-Lys-Pro-Ale-Leu-Phe^Arg-Leu-Gly-Lys(DABCYL)-Glu-NH2 (where ^ indicates the scissile bond, identified by MS analysis) is purchased from Biosyntan (Berlin, Germany) and kept as a 5 mM stock solution in DMSO at −20° C. All other chemicals are of analytical grade.
Enzymatic reactions are conducted in 50 mM sodium citrate buffer at pH 5.6 containing 150 mM NaCl and 0.05% (w/v) CHAPS.
as §1, with “All protein and peptide containing solutions are handled in siliconized tubes (Life Systems Design, Merenschwand, Switzerland). The” for “The”
as §2
as §3, with “For” for “IC50 for human kallikrein can be measured using the fluorescence-quenched substrate Ac-Glu-Asp(EDANS)-Lys-Pro-Ale-Leu-Phe^Arg-Leu-Gly-Lys(DABCYL)-Glu-NH2 (where ^ indicates the scissile bond, identified by MS analysis) which can be purchased from Biosyntan (Berlin, Germany). Enzymatic reactions are conducted in 50 mM sodium citrate buffer at pH 5.6 containing 150 mM NaCl and 0.05% (w/v) CHAPS. For”, “volumes were” for “volumes are”, “concentration was” for “concentration is”

[2] = Table 11, read-out: human neutrophile elastase IC 50
[3] = Table 11, read-out: hKallikrein7 IC 50

Sequence of human kallikrein 7 (P49862 30-253): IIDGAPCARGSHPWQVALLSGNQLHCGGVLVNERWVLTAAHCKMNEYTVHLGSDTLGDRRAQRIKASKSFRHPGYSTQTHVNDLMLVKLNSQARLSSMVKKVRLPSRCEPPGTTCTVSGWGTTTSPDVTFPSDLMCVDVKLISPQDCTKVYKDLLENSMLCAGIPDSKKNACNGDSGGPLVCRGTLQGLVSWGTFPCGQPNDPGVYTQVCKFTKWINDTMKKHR

Row | Structure (SMILES) | IC50 [1, 2] | IC50 (human kallikrein 7; [3]) | IC50 [1] | IC50 (human kallikrein 7; hKallikrein7 IC 50, Table 11) | also measured
1 | CCC=CCOc1ccc(CC2C(=O)NC(C(C)CC)C(=O)OC(C)C(NC(=O)C(CCC(N)=O)NC(=O)C(C)C)C(=O)NC(CC(C)C)C(=O)NC3CCC(OCCC)N(C3=O)C(C(C)CC)C(=O)N2C)cc1 (stereo not drawn) [example 35] | 3 nM | 8.5 nM | – | – | –
2 | CCCOC1CCC2NC(=O)C(CC(C)C)NC(=O)C(NC(=O)C(CCC(N)=O)NC(=O)C(C)C)C(C)OC(=O)C(C(C)CC)NC(=O)C(Cc3ccc(OCC=C(C)C)cc3)N(C)C(=O)C(C(C)CC)N1C2=O (stereo not drawn) [example 38] | 1.5 nM | 4 nM | – | – | –
3 | CCC(C)[C@@H]1NC(=O)[C@H](Cc2ccc(O)cc2)N(C)C(=O)[C@H](C(C)CC)NC(=O)[C@@H]2CC[C@H](O)N2C(=O)[C@H](CC(C)C)NC(=O)[C@@H](NC(=O)[C@H](CCC(N)=O)NC(=O)C(C)C)[C@@H](C)OC1=O (stereo partly drawn) [example 46] (Isobutyryl-QTL[X1][Ile(3ξ)][NMeY][Ile(3ξ)]; ester 2-C) | – | – | 100 nM | 10 nM | –
4 | CCCOC1CCC2NC(=O)C(CC(C)C)NC(=O)C(NC(=O)C(CCC(N)=O)NC(=O)C(C)C)C(C)OC(=O)C(C(C)CC)NC(=O)C(Cc3ccc(OCC(=O)OC(C)(C)C)cc3)N(C)C(=O)C(C(C)CC)N1C2=O (stereo not drawn) [example 34] | 5 nM | 4 nM | – | – | –
5 | C#CCOC1CCC2NC(=O)C(CC(C)C)NC(=O)C(NC(=O)C(CCC(N)=O)NC(=O)C(C)C)C(C)OC(=O)C(C(C)CC)NC(=O)C(Cc3ccc(O)cc3)N(C)C(=O)C(C(C)CC)N1C2=O (stereo not drawn) [example 18] | – | – | 2.5 nM | 5 nM | –
6 | CC(C)CC(=O)N[C@@H](CCC(N)=O)C(=O)N[C@@H]1C(=O)N[C@@H](CC(C)C)C(=O)N2CCC[C@@H]2C(=O)N[C@@H](Cc2ccccc2)C(=O)N(C)[C@@H](Cc2ccc(O)cc2)C(=O)N[C@@H](C(C)C)C(=O)O[C@@H]1C [formula IX] (Isovaleryl-QTL[dP]F[NMeY]V; ester 2-C) | 10 nM | 1 nM | – | – | –
7 | CCCCCCCCOC(=O)Oc1ccc(C[C@H]2C(=O)N[C@@H](C(C)CC)C(=O)O[C@H](C)[C@H](NC(=O)[C@H](CCC(N)=O)NC(=O)C(C)C)C(=O)N[C@@H](CC(C)C)C(=O)NC3CCCN(C3=O)[C@@H](C(C)CC)C(=O)N2C)cc1 (stereo partly drawn) [example 31] | 300 nM | 200 nM | – | – | –
8 | CCC(C)C(=O)N[C@@H](CCC(N)=O)C(=O)N[C@@H]1C(=O)N[C@@H](CC(C)C)C(=O)N[C@H]2CC=CN(C2=O)[C@H](C(C)CC)C(=O)N(C)[C@@H](Cc2ccc(O)cc2)C(=O)N[C@@H](C(C)CC)C(=O)O[C@@H]1C (stereo partly drawn) [formula IV] | – | – | 70 nM | 5 nM | –
9 | CCCOC1CCC2NC(=O)C(CC(C)C)NC(=O)C(NC(=O)C(CCC(N)=O)NC(=O)C(C)C)C(C)OC(=O)C(C(C)CC)NC(=O)C(Cc3ccc(OCc4cc(C)n(C)n4)cc3)N(C)C(=O)C(C(C)CC)N1C2=O (stereo not drawn) [example 42] | 1 nM | 1 nM | – | – | –
10 | CCCOC1CCC2NC(=O)C(CC(C)C)NC(=O)C(NC(=O)C(CCC(N)=O)NC(=O)C(C)C)C(C)OC(=O)C(C(C)CC)NC(=O)C(Cc3ccc(OCc4ccccc4)cc3)N(C)C(=O)C(C(C)CC)N1C2=O (stereo not drawn) [example 39] | 3.5 nM | 8.5 nM | – | – | –
11 | CCC(C)C(=O)N[C@@H](CCC(N)=O)C(=O)N[C@@H]1C(=O)N[C@@H](CC(C)C)C(=O)N2CCC[C@H]2C(=O)N[C@@H](C(C)CC)C(=O)N(C)[C@@H](Cc2ccc(O)cc2)C(=O)N[C@@H](C(C)CC)C(=O)O[C@@H]1C (stereo partly drawn) [formula XIV] ({Butanoyl(2ξ-Me)}-QTLP[Ile(3ξ)][NMeY][Ile(3ξ)]; ester 2-C) | – | – | 2700 nM | 200 nM | –
12 | CCCCCCCCOC1CCC2NC(=O)C(CC(C)C)NC(=O)C(NC(=O)C(CCC(N)=O)NC(=O)C(C)C)C(C)OC(=O)C(C(C)CC)NC(=O)C(Cc3ccc(O)cc3)N(C)C(=O)C(C(C)CC)N1C2=O (stereo not drawn) [example 6] | – | – | 55 nM | 95 nM | –
13 | CCC(C)C1NC(=O)C(Cc2ccc(O)cc2)N(C)C(=O)C(C(C)CC)N2C(=O)C(CCC2OCCOC)NC(=O)C(CC(C)C)NC(=O)C(NC(=O)C(CCC(N)=O)NC(=O)C(C)C)C(C)OC1=O (stereo not drawn) [example 13] | – | – | 4 nM | 6 nM | –
14 | CCC(C)C1NC(=O)C(Cc2ccc(O)cc2)N(C)C(=O)C(C(C)CC)N2C(=O)C(CCC2O)NC(=O)C(CC(C)C)NC(=O)C(NC(=O)C(CCC#N)NC(=O)C(C)C)C(C)OC1=O (stereo not drawn) [example 21] | 9 nM | 2.5 nM | – | – | –
15 | CCCOC1CCC2NC(=O)C(CC(C)C)NC(=O)C(NC(=O)C(CCC(N)=O)NC(=O)C(C)C)C(C)OC(=O)C(C(C)CC)NC(=O)C(Cc3ccc(OC)cc3)N(C)C(=O)C(C(C)CC)N1C2=O (stereo not drawn) [example 37] | 2.5 nM | 4.5 nM | – | – | –
16 | CCC(C)C1NC(=O)C(Cc2ccc(O)cc2)N(C)C(=O)C(C(C)CC)N2C(=O)C(CCC2OC)NC(=O)C(CC(C)C)NC(=O)C(NC(=O)C(CCC(N)=O)NC(=O)C(C)C)C(C)OC1=O (stereo not drawn) [example 17] | – | – | 7.5 nM | 3 nM | –
17 | CCC(C)C(=O)N[C@@H](CCC(N)=O)C(=O)N[C@@H]1C(=O)N[C@@H](CC(C)C)C(=O)NC2CC[C@H](O)N(C2=O)[C@@H](C(C)CC)C(=O)N(C)[C@@H](Cc2ccc(O)cc2)C(=O)N[C@@H](C(C)CC)C(=O)O[C@@H]1C (stereo partly drawn) [formula III] | – | – | 10 nM | 0.4 nM | IC50 (human kallikrein 7; hKallikrein7 IC50, Table 10): 0.4 nM
18 | CCC(C)C1NC(=O)C(Cc2ccc(O)cc2)N(C)C(=O)C(C(C)CC)N2C(=O)C(CCC2OCC(F)(F)F)NC(=O)C(CC(C)C)NC(=O)C(NC(=O)C(CCC(N)=O)NC(=O)C(C)C)C(C)OC1=O (stereo not drawn) [example 7] | – | – | 6 nM | 50 nM | –
19 | CCCOC1CCC2NC(=O)C(CC(C)C)NC(=O)C(NC(=O)C(CCC(N)=O)NC(=O)C(C)C)C(C)OC(=O)C(C(C)CC)NC(=O)C(Cc3ccc(O)cc3)N(C)C(=O)C(C(C)CC)N1C2=O (stereo not drawn) [example 5] | – | – | 5 nM | 8 nM | IC50 (human kallikrein 7; IC50 for human kallikrein 7): 9 nM
20 | CCC(C)[C@@H]1NC(=O)[C@H](Cc2ccc(O)cc2)N(C)C(=O)[C@H](C(C)CC)N2C(=O)C(CC[C@@H]2O)NC(=O)[C@H](CC(C)C)NC(=O)[C@@H](NC(=O)[C@H](CCC(N)=O)NC(=O)c2ccccc2)[C@@H](C)OC1=O (stereo partly drawn) [formula XIII] | – | – | 30 nM | – | IC50 (human kallikrein 7): 0.7 nM
